Publication PMC6256987, “Investigating the Activity Spectrum for Ring-Substituted 8-Hydroxyquinolines” (Molecules, 2010)
In brackets after ≈: the same amount, converted by molar mass. Read-outs that look alike come from different tables or passages of the source.

Assays:
[1] = system: Candida albicans ATCC 44859; assay: In vitro antifungal broth microdilution test; assay type: cell-based; conditions: 35 °C, RPMI 1640 pH 7.0, CLSI M27-A2 (IC80 value); for MIC: Candida albicans, ATCC44859
[2] = Lipophilicity determination by RP-HPLC (capacity factor k / log k); assay type: physicochemical; conditions: C18 column, isocratic MeOH 55.0% / H2O 45.0%
From the text: A Waters Alliance 2695 XE HPLC separation module and Waters Photodiode Array Detector 2996 (Waters Corp., Milford, MA, USA) were used. A Symmetry® C18 5 μm, 4.6 × 250 mm, Part No. WAT054275, (Waters Corp., Milford, MA, USA) chromatographic column was used. The HPLC separation process was monitored by Millennium32® Chromatography Manager Software, Waters 2004 (Waters Corp., Milford, MA, USA). A mixture of MeOH p.a. (55.0%) and H2O-HPLC– Mili-Q Grade (45.0%) was used as a mobile phase. The total flow of the column was 0.9 mL/min, injection 30 μL, column temperature 30 °C and sample temperature 10 °C. The detection wavelength 210 nm was chosen. The KI methanolic solution was used for the dead time (tD) determination. Retention times (tR) were measured in minutes.
The capacity factors k were calculated using the Millennium32® Chromatography Manager Software according to formula k = (tR - tD)/tD, where tR is the retention time of the solute, whereas tD denotes the dead time obtained via an unretained analyte. Log k, calculated from the capacity factor k, is used as the lipophilicity index converted to log P scale.

Candida tropicalis 156 = assay: In vitro antifungal broth microdilution test; assay type: cell-based; conditions: 35 °C, RPMI 1640 pH 7.0, CLSI M27-A2 (IC80 value); for MIC: Candida tropicalis, 156
[3] = system: photosynthetic electron transport (PET) in spinach chloroplasts; assay: Inhibition of photosynthetic electron transport (PET) in spinach chloroplasts, DCPIP photoreduction; assay type: biochemical, Spinacia oleracea L.; conditions: DCPIP as electron acceptor, phosphate buffer pH 7.2, read-out: PET reduction IC50
Method: Chloroplasts were prepared from spinach (Spinacia oleracea L.) according to Masarovicova and Kralova. The inhibition of photosynthetic electron transport (PET) in spinach chloroplasts was determined spectrophotometrically (Genesys 6, Thermo Scientific, USA) using an artificial electron acceptor 2,6-dichlorophenol-indophenol (DCIPP) according to Kralova et al. and the rate of photosynthetic electron transport was monitored as a photoreduction of DCPIP. The measurements were carried out in phosphate buffer (0.02 mol/L, pH 7.2) containing sucrose (0.4 mol/L), MgCl2 (0.005 mol/L) and NaCl (0.015 mol/L). The chlorophyll content was 30 mg/L in these experiments and the samples were irradiated (~100 W/m^2) from 10 cm distance with a halogen lamp (250 W) using a 4 cm water filter to prevent warming of the samples (suspension temperature 22 °C). The studied compounds were dissolved in DMSO due to their limited water solubility. […] The inhibitory efficiency of the studied compounds was expressed by IC50 values, i.e., by molar concentration of the compounds causing 50% decrease in the oxygen evolution rate relative to the untreated control.

Candida krusei ATCC 6258 = assay: In vitro antifungal broth microdilution test; assay type: cell-based; conditions: 35 °C, RPMI 1640 pH 7.0, CLSI M27-A2 (IC80 value); for MIC: Pichia kudriavzevii, ATCC6258
[4] = system: Trichosporon beigelii 1188; assay: In vitro antifungal broth microdilution test; assay type: cell-based
Method: Fluconazole (FLU) was used as the standard of a clinically used antimycotic drug. The procedure was performed with twofold dilution of the compounds in RPMI 1640 (Sevapharma a.s., Prague, Czech Republic) buffered to pH 7.0 with 0.165 mol of 3-morpholino-propane-1-sulfonic acid (MOPS, Sigma, Germany). The final concentrations of the compounds ranged from 500 to 0.975 μmol/L. Drug–free controls were included. The MIC determination was performed according to the CLSI (formerly NCCLS) reference protocol M27-A2 for yeasts (IC80 value) and M38-A for moulds (IC50 value). […] The values of MICs were determined after 24 and 48 h of static incubation at 35 °C. For T. mentagrophytes, the final MICs were determined after 72 and 120 h of incubation.

[5] = system: Aspergillus fumigatus 231; assay: In vitro antifungal broth microdilution test; assay type: cell-based; conditions: 35 °C, RPMI 1640 pH 7.0, CLSI M38-A (IC50 value); for MIC: Aspergillus fumigatus, 231
[6] = system: Trichophyton mentagrophytes 445; assay: In vitro antifungal broth microdilution test; assay type: cell-based
Absidia corymbifera 272 = assay: In vitro antifungal broth microdilution test; assay type: cell-based; conditions: 35 °C, RPMI 1640 pH 7.0, CLSI M38-A (IC50 value); for MIC: Lichtheimia corymbifera, 272
Candida glabrata 20/I = assay: In vitro antifungal broth microdilution test; assay type: cell-based; conditions: 35 °C, RPMI 1640 pH 7.0, CLSI M27-A2 (IC80 value); for MIC: Nakaseomyces glabratus, 20/I
[7] = Trichosporon beigelii, 1188, 24h, 35 °C, RPMI 1640 pH 7.0, CLSI M27-A2 (IC80 value), read-out: MIC TB
[8] = Trichosporon beigelii, 1188, 48h, 35 °C, RPMI 1640 pH 7.0, CLSI M27-A2 (IC80 value), read-out: MIC TB
[9] = Trichophyton mentagrophytes, 445, 120 h, pH 7
[10] = Trichophyton mentagrophytes, 445, 72h, RPMI 1640 pH 7.0, CLSI M38-A (IC50 value)

| Compound | log k [2] | IC50 [3] [µM] | MIC ([1]; 24h) [µM] | MIC ([1]; 48h) [µM] | MIC (Candida tropicalis 156; 24h) [µM] | MIC (Candida tropicalis 156; 48h) [µM] | MIC (Candida krusei ATCC 6258; 24h) [µM] | MIC (Candida krusei ATCC 6258; 48h) [µM] | MIC [4, 7] [µM] | MIC [4, 8] [µM] | MIC ([5]; 24h) [µM] | MIC ([5]; 48h) [µM] | MIC [6, 9] [µM] | MIC [6, 10] [µM] | MIC (Absidia corymbifera 272; 24h) [µM] | MIC (Absidia corymbifera 272; 48h) [µM] | MIC (Candida glabrata 20/I; 24h) [µM] | MIC (Candida glabrata 20/I; 48h) [µM] | further results |
| --- | --- | --- | --- | --- | --- | --- | --- | --- | --- | --- | --- | --- | --- | --- | --- | --- | --- | --- | --- |
| 8-Hydroxyquinoline-5-sulfonic acid isobutylamide [Compound 5] | 0.3373 | 54.4 |  |  |  |  |  |  |  |  |  |  |  |  |  |  |  |  | MIC CA ([1]; 24h): 125 µM; MIC CA ([1]; 48h): 250 µM; MIC CT (Candida tropicalis 156; 24h): 250 µM; MIC CT (Candida tropicalis 156; 48h): 250 µM; MIC CK (Candida krusei ATCC 6258; 24h): 250 µM; MIC CK (Candida krusei ATCC 6258; 48h): 250 µM; MIC TB ([4]; 24h, 35 °C, RPMI 1640 pH 7.0, CLSI M27-A2 (IC80 value)): 250 µM; MIC TB ([4]; 48h, 35 °C, RPMI 1640 pH 7.0, CLSI M27-A2 (IC80 value)): 500 µM; MIC AF ([5]; 24h): 250 µM; MIC AF ([5]; 48h): 250 µM; MIC TM ([6]; 72h, RPMI 1640 pH 7.0, CLSI M38-A (IC50 value)): 62.50 µM; MIC TM ([6]; 120h, RPMI 1640 pH 7.0, CLSI M38-A (IC50 value)): 125 µM; MIC AC (Absidia corymbifera 272; 24h): 125 µM; MIC AC (Absidia corymbifera 272; 48h): 125 µM; MIC CG (Candida glabrata 20/I; 24h): 125 µM; MIC CG (Candida glabrata 20/I; 48h): 250 µM |
| O=[N+]([O-])c1ccc(O)c2ncccc12 [Compound 1, 5-Nitroquinolin-8-ol] | 0.5695 | 78 | > 500 | > 500 | > 500 | > 500 | > 500 | > 500 | > 500 | > 500 | > 500 | > 500 | > 500 | > 500 | > 500 | > 500 | > 500 | > 500 |  |
| O=[N+]([O-])c1cc(S(=O)(=O)O)c2cccnc2c1O [Compound 2, 8-Hydroxy-7-nitroquinoline-5-sulfonic acid] | 0.1479 |  | > 250 | > 250 | > 250 | > 250 | > 250 | > 250 | > 250 | > 250 | > 250 | > 250 | > 250 | > 250 | > 250 | > 250 | > 250 | > 250 |  |
| O=S(=O)(O)c1cc(Br)c(O)c2ncccc12 [Compound 3, 7-Bromo-8-hydroxyquinoline-5-sulfonic acid] | 0.3786 | 33.5 | 0.77 (≈ 0.234 µg/mL) | 1.95 (≈ 0.593 µg/mL) | 1.95 (≈ 0.593 µg/mL) | 3.9 (≈ 1.19 µg/mL) | 3.9 (≈ 1.19 µg/mL) | 3.9 (≈ 1.19 µg/mL) |  | 3.9 (≈ 1.19 µg/mL) | 0.77 (≈ 0.234 µg/mL) | 1.95 (≈ 0.593 µg/mL) | 1.95 (≈ 0.593 µg/mL) | 1.95 (≈ 0.593 µg/mL) | 7.8 (≈ 2.37 µg/mL) | 7.8 (≈ 2.37 µg/mL) | 1.95 (≈ 0.593 µg/mL) | 3.9 (≈ 1.19 µg/mL) | MIC ([4]; Trichosporon beigelii, 1188, 24 h, pH 7, read-out: MIC TB): 3.9 µM (≈ 1.19 µg/mL) |
| O=S(=O)(c1ccc(O)c2ncccc12)N1CCOCC1 [Compound 4, 5-(Morpholine-4-sulfonyl)quinolin-8-ol] | 0.3293 |  | 125 (≈ 36.8 µg/mL) | 500 (≈ 147 µg/mL) | 500 (≈ 147 µg/mL) | 500 (≈ 147 µg/mL) | 250 (≈ 73.6 µg/mL) | 500 (≈ 147 µg/mL) | 500 (≈ 147 µg/mL) | 500 (≈ 147 µg/mL) | 500 (≈ 147 µg/mL) | 500 (≈ 147 µg/mL) | 250 (≈ 73.6 µg/mL) | 250 (≈ 73.6 µg/mL) | 125 (≈ 36.8 µg/mL) | 250 (≈ 73.6 µg/mL) | 500 (≈ 147 µg/mL) | 500 (≈ 147 µg/mL) |  |
| O=S(=O)(NCCc1ccccc1)c1ccc(O)c2ncccc12 [Compound 6, 8-Hydroxyquinoline-5-sulfonic acid (2-phenylethyl)amide] | 0.3349 | 304 | 125 (≈ 41 µg/mL) | 125 (≈ 41 µg/mL) | 125 (≈ 41 µg/mL) | 125 (≈ 41 µg/mL) | 125 (≈ 41 µg/mL) | 125 (≈ 41 µg/mL) | 125 (≈ 41 µg/mL) | 125 (≈ 41 µg/mL) | 125 (≈ 41 µg/mL) | 125 (≈ 41 µg/mL) | 125 (≈ 41 µg/mL) | 125 (≈ 41 µg/mL) | 125 (≈ 41 µg/mL) | 125 (≈ 41 µg/mL) | 125 (≈ 41 µg/mL) | 125 (≈ 41 µg/mL) |  |
| O=S(=O)(NCCCCc1ccccc1)c1ccc(O)c2ncccc12 [Compound 7, 8-Hydroxyquinoline-5-sulfonic acid (4-phenylbutyl)amide] | 0.3902 | 616 | > 125 | > 125 | > 125 | > 125 | > 125 | > 125 | > 125 | > 125 | > 125 | > 125 | > 125 | > 125 | > 125 | > 125 | > 125 | > 125 |  |
| CC(=O)Nc1ccc2cccc(OC(C)=O)c2n1 [Compound 8, 2-Acetylaminoquinolin-8-yl acetate] | 0.3583 | 306 | 15.6 | 62.5 | 31.2 | 31.2 | 62.5 | 62.5 | 62.5 | 125 | 62.5 | 62.5 | 62.5 | 62.5 | 62.5 | 62.5 | 31.2 | 62.5 |  |
| Oc1ccccc1C=Cc1ccc2c(Cl)cc(Cl)c(O)c2n1 [Compound 9, 5,7-Dichloro-2-[2-(2-hydroxyphenyl)vinyl]quinolin-8-ol] | 1.5854 |  |  |  |  |  |  |  |  |  |  |  |  |  |  |  |  |  |  |
| OC(Cn1cncn1)(Cn1cncn1)c1ccc(F)cc1F [FLU, fluconazole, reference compound] |  |  | 0.06 (≈ 0.0184 µg/mL) | 0.12 (≈ 0.0368 µg/mL) | 0.12 (≈ 0.0368 µg/mL) | > 125 | 3.91 (≈ 1.2 µg/mL) | 15.6 (≈ 4.78 µg/mL) | 0.24 (≈ 0.0735 µg/mL) | 0.48 (≈ 0.147 µg/mL) | > 125 | > 125 | 3.91 (≈ 1.2 µg/mL) | 1.95 (≈ 0.597 µg/mL) | > 125 | > 125 | 0.98 (≈ 0.3 µg/mL) | 3.91 (≈ 1.2 µg/mL) |  |
